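Method: 48-hour compound exposure of cells in 96-well plates, five concentrations, linear interpolation of endpoints. GI50 = concentration required for 50% inhibition of growth. TGI: concentration producing complete growth inhibition.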 Bounds are passed on as bounds.

In one experiment the test system is IGROV1 ovarian. As to the kind of experiment: NCI-60 cell line screen, 48 h.
In another experiment the test system is NCI-H226 lung. As to the kind of experiment: NCI-60 cell line screen, 48 h.

In the case of `Cc1ccc(C2N=C(N)NC3=C2CCOc2c3ccc3ccccc23)cc1` (centres undefined), in the experiment on IGROV1 ovarian, the GI50 is 44.6 µM and the TGI was greater than 100 µM. Besides, in the experiment with NCI-H226 lung, the GI50 is 28.1 µM and the TGI was greater than 88.4 µM.

`CO/C(=C/C(=O)C(Cl)(Cl)Cl)CC/C(=C\C(=O)C(Cl)(Cl)Cl)OC` showed a TGI with IGROV1 ovarian of 35.8 µM. With `COC1=CC(=O)c2c(cc(COP(=O)(OCC3OC(n4cc(F)c(=O)[nH]c4=O)CC3O)N(C)CCCCCl)n2C)C1=O` (centres undefined), the TGI was 23.7 µM in the experiment on IGROV1 ovarian and 47.1 µM in the experiment on NCI-H226 lung. `COC(=O)C(C(=O)C(=O)Nc1ccccc1C#N)c1nc2ccc([N+](=O)[O-])cc2[nH]c1=O` (centres undefined): the TGI in the experiment on IGROV1 ovarian and in the experiment with NCI-H226 lung was greater than 100 µM in each case.

Regarding `CC1CCCCN1CC(=O)c1ccc2c(c1)Sc1ccccc1O2` (centres undefined), the TGI in the experiment on IGROV1 ovarian is 19.9 µM; in the experiment with NCI-H226 lung, 26.4 µM. With `COC(=O)[C@@]1(Cc2ccc(O)cc2)C[C@@H]2Cc3ccccc3N2N1`, the TGI in the experiment on IGROV1 ovarian and in the experiment with NCI-H226 lung was greater than 100 µM throughout.

With `C=CCc1cc(C=C(C#N)C#N)cc(OC)c1O`, the TGI with IGROV1 ovarian and in the experiment with NCI-H226 lung was greater than 100 µM in each case.

In turn, `O=c1c(C2=NCCC2)c(-c2ccc[nH]2)[nH]n1-c1ccccc1` showed a TGI in the experiment with NCI-H226 lung greater than 100 µM. As to `c1ccc(-c2nnc(SCc3c[nH]c4ccccc34)n2-c2ccccc2)cc1`, the TGI in the experiment with IGROV1 ovarian and with NCI-H226 lung was greater than 100 µM throughout.

Take `CCCCCCCNC(P(=O)(O)O)P(=O)(O)O`: the TGI in the experiment with IGROV1 ovarian and with NCI-H226 lung was greater than 100 µM in each case.

With `N#CCOc1ccc(/C=C/C(=O)c2ccc(Cl)cc2)cc1`, the values for the TGI in the experiment with IGROV1 ovarian and with NCI-H226 lung were 60.4 µM and greater than 100 µM, respectively. As to `Cc1[nH]n(C(=N)N)c(=O)c1CCO`, the TGI in the experiment with IGROV1 ovarian and in the experiment on NCI-H226 lung was greater than 100 µM each time.

`CSc1c(C(=O)Nc2ccc(C)cc2)c(N)n(N)c(=O)c1C#N`: the TGI in the experiment on IGROV1 ovarian and with NCI-H226 lung was greater than 100 µM each time. Regarding `COC(=O)/C=C(/C(=O)OC)c1cc2ccc3c([nH]c4ccccc43)c(C)c-2c1`, the TGI in the experiment on IGROV1 ovarian is 13.1 µM; with NCI-H226 lung, 19.8 µM.

Regarding `COC(=O)c1c2c(cc3c1CC1(C3)Cc3cc4c(c(C(C)=O)c3C1)CCC4)C=CC2` (centres undefined), the TGI in the experiment with IGROV1 ovarian and with NCI-H226 lung was greater than 31.6 µM in each case. For `Cc1c(/C=N/NC(=S)Nc2ccccc2)c(=O)n(-c2ccccc2)n1C`, the TGI with IGROV1 ovarian and in the experiment on NCI-H226 lung was greater than 100 µM each time. As to `CCOC(=O)NC(C(=O)OCC)(N1CCN(c2cc3c(cc2F)c(=O)c(C(=O)O)cn3CC)CC1)C(F)(F)F` (centres undefined), the TGI with IGROV1 ovarian and in the experiment on NCI-H226 lung was greater than 100 µM throughout. With `O=C(CC(C(=O)c1cccs1)c1cccs1)c1ccccc1Cl` (centres undefined), the TGI in the experiment with IGROV1 ovarian and in the experiment with NCI-H226 lung was greater than 100 µM each time. As to `CC(=O)Nc1ccc(-c2nc3ccccc3s2)cc1C`, the TGI with IGROV1 ovarian and in the experiment with NCI-H226 lung was greater than 100 µM in each case. Take `O=C1CCCC(=O)N1n1c(Cc2ccccc2)n[nH]c1=O`: the TGI in the experiment on IGROV1 ovarian and with NCI-H226 lung was greater than 100 µM in each case. As to `COc1cc(C(=O)C2C(=O)c3ccccc3C2C2(O)c3ccccc3CC2C(O)c2cc(OC)c(OC)c(OC)c2)cc(OC)c1OC` (centres undefined), the TGI in the experiment on IGROV1 ovarian and with NCI-H226 lung was greater than 100 µM each time. `O=[N+]1ON=C(c2ccccc2)C1=C1C(c2c(-c3ccccc3)no[n+]2[O-])=NON1[O-]`: the TGI was greater than 100 µM with IGROV1 ovarian and 62.5 µM in the experiment with NCI-H226 lung.

With `COC(=O)c1ccc(NCc2c(O)ccc(O)c2Br)cc1Cl`, the values for the TGI in the experiment with IGROV1 ovarian and in the experiment on NCI-H226 lung were 28.7 µM and greater than 100 µM, respectively. On to `O=c1oc2ccccc2c(O)c1/C=N/C(=S)NCc1ccccc1`, for which the TGI with IGROV1 ovarian and in the experiment with NCI-H226 lung was greater than 100 µM in each case. In the experiment on NCI-H226 lung, `C[n+]1c2ccccc2n2c3ccccc3c(NCCc3ccccn3)c(C#N)c21` displayed a TGI of 16.6 µM. On to `O=C(NNC(=S)Nc1ccc(Br)cc1)c1cc(-c2ccccc2)nc2ccccc12`, for which the TGI is greater than 100 µM in the experiment with IGROV1 ovarian and 73.7 µM in the experiment with NCI-H226 lung.

Consider `COC(CC1(/C=C/O[Si](C(C)C)(C(C)C)C(C)C)C(=O)N(COCC[Si](C)(C)C)c2ccccc21)OC` (centres undefined), for which the TGI is 59.9 µM with IGROV1 ovarian and greater than 100 µM in the experiment with NCI-H226 lung.

With `Nn1c(CCCCCCCCc2nnc(COc3ccccc3)n2N)nnc1COc1ccccc1`, the TGI in the experiment on IGROV1 ovarian and in the experiment with NCI-H226 lung was greater than 100 µM each time. For the compound `COc1ccc(P2(=S)SP(=S)(c3ccc(Cl)cc3)S2)cc1` (centres undefined), the TGI with IGROV1 ovarian and in the experiment with NCI-H226 lung was greater than 100 µM throughout. Take `CCOC(=O)C1=c2[nH]c3cccc4cccc(c43)n2C(=O)CC1c1ccccc1` (centres undefined): the TGI with IGROV1 ovarian and in the experiment on NCI-H226 lung was greater than 100 µM each time. Turning to `COc1cc(OC)c2c(=O)c(OC)c(-c3ccc4c(c3)OCO4)oc2c1OC`, the TGI in the experiment on IGROV1 ovarian and in the experiment with NCI-H226 lung was greater than 100 µM in each case. Turning to `CC(C)COC(=O)OC(=O)c1ccc(N(C)Cc2cnc3nc(N)nc(N)c3n2)cc1`, the TGI in the experiment on IGROV1 ovarian and in the experiment on NCI-H226 lung was greater than 100 µM in each case. For the compound `O=c1cc(N2CCCC2)[nH]c(=O)n1-c1ccc(F)cc1`, the TGI was greater than 100 µM in the experiment on IGROV1 ovarian and 50.8 µM with NCI-H226 lung. For the compound `NNC1=N/C(=C\c2ccco2)C(=O)N1`, the TGI with IGROV1 ovarian and in the experiment on NCI-H226 lung was greater than 100 µM throughout. Turning to `CCOC(=O)C(=[N+]=[N-])C(=O)CN1C(=O)C2CC(C)=C(C)CC2C1O` (centres undefined), the TGI with IGROV1 ovarian and in the experiment with NCI-H226 lung was greater than 100 µM throughout. Consider `O=C1C(Cl)C2(CC(/C=C/c3ccccc3O)=NN2c2cccc(S(=O)(=O)O)c2)N1c1nc2ccccc2s1` (centres undefined), for which the TGI in the experiment on IGROV1 ovarian amounted to 31.2 µM; in the experiment on NCI-H226 lung it was 51.2 µM. Consider `COC(=O)C(Cc1ccccc1)NP(=O)(O)OCC1OC(n2cc(I)c(=O)[nH]c2=O)CC1O` (centres undefined), for which the TGI in the experiment with IGROV1 ovarian and in the experiment with NCI-H226 lung was greater than 100 µM each time. Take `COc1c2c(cc3c1OCO3)C13C=CC(OC)CC1N(CC3)C2` (centres undefined): the TGI with IGROV1 ovarian and in the experiment with NCI-H226 lung was greater than 100 µM each time. As for `Cc1c(-c2ccccc2)c(C#N)c2nnn(C3CCCCC3)c(=O)n12`, the TGI with IGROV1 ovarian and with NCI-H226 lung was greater than 100 µM throughout. Take `NC(=O)C(=CNC(=S)Nc1ccc(Cl)c(Cl)c1)C(N)=O`: the TGI in the experiment on IGROV1 ovarian and with NCI-H226 lung was greater than 100 µM throughout. `O=C(O)CC1NC(/C(=C/c2ccccc2O)NC(=O)c2ccccc2)OC1=O` (centres undefined): the TGI in the experiment with IGROV1 ovarian was greater than 70.9 µM; in the experiment on NCI-H226 lung, greater than 79.5 µM.

Regarding `COc1cc(CNC2=NCCC2)cc(OC)c1OC`, the TGI in the experiment with IGROV1 ovarian and in the experiment on NCI-H226 lung was greater than 100 µM throughout. Consider `CC(=O)Oc1c2c(c(CC=C(C)C)c3c1C(=O)C1=C[C@@H]4CC5C(C)(C)OC(C/C=C(/C)C(=O)O)(C4=O)[C@@]15O3)OC(C)(CCC=C(C)C)C=C2` (some centres undefined), for which the results for the TGI in the experiment with IGROV1 ovarian and with NCI-H226 lung were 0.294 µM and 0.834 µM, respectively. Turning to `CCOC(=O)/C(N=Nc1ccc(-n2c(C)nc3ccc(Br)cc3c2=O)cc1)=C(/C)O`, the TGI in the experiment with IGROV1 ovarian and with NCI-H226 lung was greater than 100 µM throughout. Regarding `COc1cccc2c3ccccc3c3nc[nH]c3c12`, the TGI in the experiment on IGROV1 ovarian was greater than 100 µM; with NCI-H226 lung, greater than 95 µM. Regarding `COC(=O)C1(C(=O)OC)N=C(C)OC1c1ccccn1` (centres undefined), the TGI with IGROV1 ovarian and with NCI-H226 lung was greater than 100 µM each time. Regarding `Cc1cc(C)nc(SCC(=O)OC2CC(C)CCC2C(C)C)n1` (centres undefined), the TGI in the experiment with IGROV1 ovarian came out at 65.6 µM. In the case of `COc1cccc(CCNc2c(C#N)c3nc4ccccc4n3c3ccccc23)c1`, the TGI with IGROV1 ovarian and in the experiment with NCI-H226 lung was greater than 100 µM in each case. Consider `C[N+](C)(C)/N=C/c1ccc(O)c(O)c1`, for which the TGI with IGROV1 ovarian and in the experiment on NCI-H226 lung was greater than 100 µM in each case. As for `CC(C)(C)CNC(=O)NCn1cc(-c2ccccc2)nn1`, the TGI in the experiment with IGROV1 ovarian and in the experiment on NCI-H226 lung was greater than 100 µM throughout. For `CC(C)OP(=O)(OC(C)C)c1ccc2c(c1)OCCOCCOCCOCCO2`, the TGI in the experiment on IGROV1 ovarian and with NCI-H226 lung was greater than 100 µM in each case. `COc1cccc(C2ON=C(c3ccccc3)N2C23CC4CC(CC(C4)C2)C3)c1` (centres undefined): the TGI in the experiment with IGROV1 ovarian and in the experiment on NCI-H226 lung was greater than 10 µM each time. In the case of `Cc1ccc(C2SCC(=O)N2c2ccc(-c3ccc(-n4c(-c5ccccc5)nc5ccccc5c4=O)cc3)cc2)cc1` (centres undefined), in the experiment on IGROV1 ovarian, the TGI was greater than 100 µM.

As for `CCOC(=O)C1C(c2ccc(O)c(OC)c2)c2c([nH][nH]c2=O)CC1(C)O` (centres undefined), in the experiment on IGROV1 ovarian, the TGI was greater than 100 µM. Regarding `COC1(OC)N=C(N)C2(C#N)C3(C(=O)N(C(C)C)N=C3C)C12C#N` (centres undefined), the TGI in the experiment with IGROV1 ovarian and with NCI-H226 lung was greater than 100 µM throughout. Take `CSc1cc(Br)ccc1-n1c(C(=O)c2ccccc2)c(SC)n(-c2ccccc2)c1=O`: the TGI with IGROV1 ovarian and with NCI-H226 lung was greater than 100 µM each time. In the experiment on IGROV1 ovarian, `O=c1c2ccccc2nc2n1C(c1ccc([N+](=O)[O-])cc1)C2(c1ccccc1)c1ccccc1` (centres undefined) displayed a TGI greater than 100 µM.

Source of the values: PubChem BioAssay (NCI).
